Measurements: publication PMC4994063, “Harnessing Fluorine–Sulfur Contacts and Multipolar Interactions for the Design of p53 Mutant Y220C Rescue Drugs” (ACS Chemical Biology, 2016)
Several values for one entry are separate records, joined by “and”; a condition that tells them apart may be missing. Equal entries are not always repeated. Where two headings read alike, the source gives them in different places.

What was measured:
[1] = biological target: T1, p53-Y220C DNA-binding domain (DBD) (Homo sapiens, UniProt P04637, M133L/N239Y/N268D/V203A/Y220C); experiment: Differential scanning fluorimetry (DSF), stabilization of p53-Y220C DBD; details: 8 μM stabilized p53-Y220C DBD, 25 mM KPi pH 7.2, 5% DMSO, triplicate; for ΔTm at 125 µM: pH 7.2, compound 125 μM; for DSF ΔTm at 125 μM: compound 125 μM
T1 construct: Stabilized p53-Y220C DBD (residues 94–312) was expressed and purified as previously described; made in house
Protocol: We tested […]083 (1) and analogues 2-6 for their stabilization of the p53-Y220C DNA-binding domain (DBD) using differential scanning fluorimetry (DSF; Table 1). The N-2,2,2-trifluoroethyl substituted carbazoles 4 and 6 increased stability of the p53-Y220C DBD by 1.2 K at a compound concentration of 125 μM, showing a clear improvement over their N-ethyl substituted counterparts […]083 (1) and 5 (ΔTm = 0.8 K and ΔTm = 0.6 K, respectively). […] DSF was performed as described.[26] Briefly, melting temperatures (Tm) were determined using 8 μM protein (stabilized p53-Y220C DBD) and 10 × SYPRO orange (Life Technologies) in a 25 mM KPi (pH 7.2), 150 mM NaCl, and 1 mM TCEP assay buffer at a final DMSO concentration of 5% (v/v). ΔTm values were calculated as ΔTm= Tm (protein + compound) - Tm (protein)). All samples were measured in triplicate.

p53-Y220C DBD [2] = biological target: T2, p53-Y220C DBD (Homo sapiens, UniProt P04637, M133L/N239Y/N268D/V203A/Y220C); experiment: Isothermal titration calorimetry (ITC); assay type: binding; details: for Kd: 50 μM protein, 25 mM KPi pH 7.2, 150 mM NaCl, 1 mM TCEP, 5% DMSO; for increase in affinity (ITC KD) compared to the nonfluorinated parent compounds (1 and 5): 4 vs 1, 6 vs 5; for improvement of free energy of binding compared with parent compounds: at 293 K, vs PhiKan083 (1) and 5
T2 construct: Stabilized p53-Y220C DBD (residues 94–312) was expressed and purified as previously described; made in house
Protocol: We tested PhiKan083 (1) and analogues 2–6 for their stabilization of the p53-Y220C DNA-binding domain (DBD) using differential scanning fluorimetry (DSF; Table 1). The N-2,2,2-trifluoroethyl substituted carbazoles 4 and 6 increased stability of the p53-Y220C DBD by 1.2 K at a compound concentration of 125 μM, showing a clear improvement over their N-ethyl substituted counterparts PhiKan083 (1) and 5 (ΔTm = 0.8 K and ΔTm = 0.6 K, respectively).
ITC experiments were conducted as described.[26] Samples for the cell unit contained 50 μM protein in a 25 mM KPi (pH 7.2), 150 mM NaCl, 1 mM TCEP, and 5% (v/v) DMSO assay buffer. The syringe contained 2–5 mM compound in the same assay buffer.

p53-Y220C DBD [3] = biological target: T2, p53-Y220C DBD; parameters: method as in Boeckler et al. (24); details: data taken from the literature; ref Boeckler et al. (24); read-out: ITC KD; cited from earlier work

SMILES | ΔTm at 125 µM [1] [°C] | ligand efficiency (LE) (p53-Y220C DBD [2]) [kcal mol^–1 atom^–1] | Kd (p53-Y220C DBD [2]) | increase in affinity (ITC KD) compared to the nonfluorinated parent compounds (1 and 5) (p53-Y220C DBD [2]) [fold] | improvement of free energy of binding compared with parent compounds (p53-Y220C DBD [2]) | drop in affinity due to additional methyl group at the amine (p53-Y220C DBD [2]; 5 vs 1) [%] | DSF ΔTm at 125 μM [1] [K] | Kd (p53-Y220C DBD [3]) [µM]
CNCc1ccc2c(c1)c1ccccc1n2CC(F)F [Compound 3, 1-(9-(2,2-Difluoroethyl)-9H-carbazol-3-yl)-N-methylmethanamine] | 0.4 |  | 101 µM |  |  |  | 0.3 | 
CNCc1ccc2c(c1)c1ccccc1n2CCF [Compound 2, 1-(9-(2-Fluoroethyl)-9H-carbazol-3-yl)-N-methylmethanamine] | 0.3 |  | 138 µM |  |  |  | 0.4 | 
CNCc1ccc2c(c1)c1ccccc1n2CC(F)(F)F [Compound 4, 1-(9-(2,2,2-Trifluoroethyl)-9H-carbazol-3-yl)-N-methylmethanamine] | 1.2 | 0.3 | 28.3 µM and 28 µM | 5 | approximately −0.9 kcal/mol |  |  | 
CCn1c2ccccc2c2cc(CNC)ccc21 [Compound 1, 1-(9-ethyl-9H-carbazole-3-yl)-N-methylmethanamine] |  |  |  |  |  |  |  | 124

Second part, led by results:

ΔTm at 125 µM [1] [°C] | ligand efficiency (LE) (p53-Y220C DBD [2]) [kcal mol^–1 atom^–1] | Kd (p53-Y220C DBD [2]) | increase in affinity (ITC KD) compared to the nonfluorinated parent compounds (1 and 5) (p53-Y220C DBD [2]) [fold] | improvement of free energy of binding compared with parent compounds (p53-Y220C DBD [2]) | drop in affinity due to additional methyl group at the amine (p53-Y220C DBD [2]; 5 vs 1) [%] | DSF ΔTm at 125 μM [1] [K] | SMILES | Kd (p53-Y220C DBD [3]) [µM]
1.2 | 0.3 | 37.2 µM and 37 µM | 5 | approximately −0.9 kcal/mol |  |  | CN(C)Cc1ccc2c(c1)c1ccccc1n2CC(F)(F)F [Compound 6, 1-(9-(2,2,2-Trifluoroethyl)-9H-carbazol-3-yl)-N,N-dimethylmethanamine] | 
0.6 |  | 169 µM |  |  | 30 |  | CCn1c2ccccc2c2cc(CN(C)C)ccc21 [Compound 5, 1-(9-Ethyl-9H-carbazol-3-yl)-N,N-dimethylmethanamine] | 
